Patent US9636418B2 (priority 2013, dated 2017)
Where “and” joins values, the source holds several entries; their conditions need not be identical. Equal entries are not always repeated.

What was measured:
Experiment in all cases: cell-based
[1] = target: hNav1.5 (Homo sapiens, UniProt Q14524); settings: IonWorks Quattro; read-out: IC50 Nav1.5
[2] = target: hNav1.3 (Homo sapiens, UniProt Q9NY46); settings: IonWorks Quattro; read-out: IC50 Nav1.3
[3] = target: hNav1.7 (Homo sapiens, UniProt Q15858); settings: IonWorks Quattro; read-out: IC50 Nav1.7
[4] = target: hNav1.4 (Homo sapiens, UniProt P35499); settings: for IC50: IonWorks Quattro, read-out: IC50 Nav1.4; for Nav1.4/Nav1.7: ratio of IonWorks Quattro IC50 values
Sequence of hNav1.4 (P35499 whole entry): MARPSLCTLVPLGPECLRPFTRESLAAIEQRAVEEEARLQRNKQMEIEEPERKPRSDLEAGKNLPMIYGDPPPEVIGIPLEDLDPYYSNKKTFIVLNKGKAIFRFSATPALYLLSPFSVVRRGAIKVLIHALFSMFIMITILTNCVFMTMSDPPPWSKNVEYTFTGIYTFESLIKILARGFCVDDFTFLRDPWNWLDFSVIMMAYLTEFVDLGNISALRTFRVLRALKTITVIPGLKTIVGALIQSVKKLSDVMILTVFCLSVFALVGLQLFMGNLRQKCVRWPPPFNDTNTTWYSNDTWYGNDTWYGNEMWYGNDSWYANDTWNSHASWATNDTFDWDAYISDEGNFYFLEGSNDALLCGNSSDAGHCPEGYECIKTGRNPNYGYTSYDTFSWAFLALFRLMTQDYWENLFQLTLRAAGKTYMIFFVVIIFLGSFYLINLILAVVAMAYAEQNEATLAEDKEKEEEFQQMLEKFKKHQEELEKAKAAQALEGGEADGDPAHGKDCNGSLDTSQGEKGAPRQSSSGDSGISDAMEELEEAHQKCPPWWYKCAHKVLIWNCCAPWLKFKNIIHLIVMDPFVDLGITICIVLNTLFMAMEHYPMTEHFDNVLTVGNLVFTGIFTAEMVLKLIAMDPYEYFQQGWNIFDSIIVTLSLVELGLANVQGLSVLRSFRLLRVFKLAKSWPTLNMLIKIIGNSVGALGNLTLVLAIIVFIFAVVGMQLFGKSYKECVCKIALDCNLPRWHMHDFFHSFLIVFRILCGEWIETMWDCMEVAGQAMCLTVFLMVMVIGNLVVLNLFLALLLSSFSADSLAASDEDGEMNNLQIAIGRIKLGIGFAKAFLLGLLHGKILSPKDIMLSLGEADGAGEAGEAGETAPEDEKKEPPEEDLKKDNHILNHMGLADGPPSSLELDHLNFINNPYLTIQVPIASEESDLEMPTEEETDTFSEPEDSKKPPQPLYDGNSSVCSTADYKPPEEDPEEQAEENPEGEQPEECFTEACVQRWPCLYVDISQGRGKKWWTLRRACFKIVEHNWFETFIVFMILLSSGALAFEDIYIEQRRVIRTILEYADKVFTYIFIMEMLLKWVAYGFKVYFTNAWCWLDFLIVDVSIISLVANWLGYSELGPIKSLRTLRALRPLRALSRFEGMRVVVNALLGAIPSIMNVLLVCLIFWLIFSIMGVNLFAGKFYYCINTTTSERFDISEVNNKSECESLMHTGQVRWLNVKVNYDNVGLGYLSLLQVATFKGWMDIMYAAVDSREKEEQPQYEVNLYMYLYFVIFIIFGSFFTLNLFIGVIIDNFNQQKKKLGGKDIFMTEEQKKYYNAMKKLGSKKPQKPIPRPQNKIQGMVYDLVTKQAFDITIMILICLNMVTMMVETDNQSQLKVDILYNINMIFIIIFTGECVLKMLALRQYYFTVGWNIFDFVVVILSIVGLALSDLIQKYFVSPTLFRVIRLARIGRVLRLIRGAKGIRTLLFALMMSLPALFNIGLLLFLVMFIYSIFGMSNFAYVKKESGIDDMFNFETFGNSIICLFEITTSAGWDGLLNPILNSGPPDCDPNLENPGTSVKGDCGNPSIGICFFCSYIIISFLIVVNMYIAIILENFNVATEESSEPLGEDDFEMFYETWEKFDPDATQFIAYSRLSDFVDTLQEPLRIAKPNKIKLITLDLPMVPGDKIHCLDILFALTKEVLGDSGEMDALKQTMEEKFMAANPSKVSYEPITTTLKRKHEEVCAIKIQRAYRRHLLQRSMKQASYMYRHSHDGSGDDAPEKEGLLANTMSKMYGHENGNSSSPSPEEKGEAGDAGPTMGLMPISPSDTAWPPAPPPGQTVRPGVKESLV

Sequence of hNav1.3 (Q9NY46 whole entry): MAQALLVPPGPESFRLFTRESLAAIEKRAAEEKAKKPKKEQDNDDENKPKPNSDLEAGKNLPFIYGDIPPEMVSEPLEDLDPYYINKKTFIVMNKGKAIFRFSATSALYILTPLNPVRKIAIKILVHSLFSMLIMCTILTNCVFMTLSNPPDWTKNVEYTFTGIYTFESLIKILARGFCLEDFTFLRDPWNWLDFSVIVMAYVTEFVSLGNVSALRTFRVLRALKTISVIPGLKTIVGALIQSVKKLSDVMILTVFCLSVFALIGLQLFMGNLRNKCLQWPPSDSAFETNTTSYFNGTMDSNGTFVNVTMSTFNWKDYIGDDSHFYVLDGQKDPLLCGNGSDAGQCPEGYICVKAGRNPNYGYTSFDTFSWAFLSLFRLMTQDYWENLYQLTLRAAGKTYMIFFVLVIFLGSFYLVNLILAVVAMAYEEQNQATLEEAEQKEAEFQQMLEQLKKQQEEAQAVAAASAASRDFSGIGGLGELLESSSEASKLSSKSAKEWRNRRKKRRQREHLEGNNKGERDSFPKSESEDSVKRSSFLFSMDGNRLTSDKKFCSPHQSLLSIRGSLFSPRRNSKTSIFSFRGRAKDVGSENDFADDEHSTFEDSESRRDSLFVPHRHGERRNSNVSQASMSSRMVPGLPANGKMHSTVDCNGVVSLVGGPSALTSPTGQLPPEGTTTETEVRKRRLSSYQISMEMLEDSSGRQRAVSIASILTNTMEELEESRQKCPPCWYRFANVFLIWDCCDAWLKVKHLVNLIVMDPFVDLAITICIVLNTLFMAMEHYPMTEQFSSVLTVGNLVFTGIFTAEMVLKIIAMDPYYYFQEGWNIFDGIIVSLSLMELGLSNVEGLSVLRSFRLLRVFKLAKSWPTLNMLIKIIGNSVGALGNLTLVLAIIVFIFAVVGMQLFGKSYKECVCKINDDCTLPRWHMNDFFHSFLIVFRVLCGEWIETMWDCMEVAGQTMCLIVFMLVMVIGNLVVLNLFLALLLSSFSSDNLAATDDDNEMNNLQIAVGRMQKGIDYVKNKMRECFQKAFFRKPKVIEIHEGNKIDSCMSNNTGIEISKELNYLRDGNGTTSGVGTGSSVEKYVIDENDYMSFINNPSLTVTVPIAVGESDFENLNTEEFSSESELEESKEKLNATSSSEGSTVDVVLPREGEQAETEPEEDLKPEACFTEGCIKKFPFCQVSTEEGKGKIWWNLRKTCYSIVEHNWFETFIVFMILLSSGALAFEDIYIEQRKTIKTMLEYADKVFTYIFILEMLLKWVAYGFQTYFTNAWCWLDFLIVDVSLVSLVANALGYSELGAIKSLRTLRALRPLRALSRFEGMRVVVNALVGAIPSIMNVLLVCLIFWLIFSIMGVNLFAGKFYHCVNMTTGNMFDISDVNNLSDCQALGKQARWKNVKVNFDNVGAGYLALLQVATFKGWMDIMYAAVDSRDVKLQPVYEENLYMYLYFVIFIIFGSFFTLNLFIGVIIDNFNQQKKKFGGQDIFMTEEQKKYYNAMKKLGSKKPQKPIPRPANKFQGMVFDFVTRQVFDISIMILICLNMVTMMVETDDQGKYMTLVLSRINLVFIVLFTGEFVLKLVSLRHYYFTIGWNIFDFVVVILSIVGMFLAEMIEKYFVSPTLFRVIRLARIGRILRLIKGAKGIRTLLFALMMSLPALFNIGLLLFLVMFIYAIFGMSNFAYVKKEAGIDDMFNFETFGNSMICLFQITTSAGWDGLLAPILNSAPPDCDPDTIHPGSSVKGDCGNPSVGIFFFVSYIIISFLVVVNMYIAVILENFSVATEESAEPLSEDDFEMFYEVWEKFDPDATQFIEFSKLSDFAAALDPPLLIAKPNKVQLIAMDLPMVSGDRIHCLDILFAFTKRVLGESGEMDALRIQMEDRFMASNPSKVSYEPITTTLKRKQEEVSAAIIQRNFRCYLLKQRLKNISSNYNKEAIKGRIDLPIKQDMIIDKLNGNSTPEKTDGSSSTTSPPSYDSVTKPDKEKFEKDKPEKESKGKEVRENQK

Row | SMILES | IC50 [1] | IC50 [2] | IC50 [3] | IC50 [4] | Nav1.4/Nav1.7 [4]
1 | CC[C@H](C)[C@H](NC(=O)[C@H](CCC(=O)O)NC(=O)[C@H](CCCCN)NC(=O)[C@H](CCCNC(=N)N)NC(=O)[C@@H]1CSSC[C@@H]2NC(=O)[C@H](C)NC(=O)[C@H](CCCNC(=N)N)NC(=O)[C@H](CCCCN)NC(=O)[C@H](CO)NC(=O)[C@H](CC(=O)O)NC(=O)[C@@H]3CSSC[C@H](NC(=O)[C@H](CCC(=O)O)NC(=O)[C@H](CC(C)C)NC(=O)CNC(=O)[C@H](CCC(=O)O)NC(=O)[C@H](CSSC[C@H](NC(=O)[C@@H](N)Cc4ccc(O)cc4)C(=O)N[C@@H](CCC(N)=O)C(=O)N[C@@H](CCCCN)C(=O)N[C@@H](Cc4c[nH]c5ccccc45)C(=O)N[C@@H](CCSC)C(=O)N[C@@H](Cc4c[nH]c5ccccc45)C(=O)N[C@@H]([C@@H](C)O)C(=O)N3)NC2=O)C(=O)N[C@@H](CCCCN)C(=O)N[C@@H](CC(C)C)C(=O)N[C@@H](Cc2c[nH]c3ccccc23)C(=O)N1)C(N)=O [compound 126] | 15.8 µM and 7.5 µM | > 5 µM | 0.95 µM and 1.44 µM | > 5 µM | 5 and 3
2 | CCC[C@@H]1NC(=O)[C@H](CC(C)C)NC(=O)CNC(=O)[C@H](CCC(=O)O)NC(=O)[C@@H]2CSSC[C@H](NC(=O)[C@@H](N)Cc3ccc(O)cc3)C(=O)N[C@@H](CCC(N)=O)C(=O)N[C@@H](CCCCN)C(=O)N[C@@H](Cc3c[nH]c4ccccc34)C(=O)N[C@@H](CCSC)C(=O)N[C@@H](Cc3c[nH]c4ccccc34)C(=O)N[C@@H]([C@@H](C)O)C(=O)N[C@H]3CSSC[C@H](NC1=O)C(=O)N[C@@H](CCCCN)C(=O)N[C@@H](CC(C)C)C(=O)N[C@@H](Cc1c[nH]c4ccccc14)C(=O)N[C@H](C(=O)N[C@@H](CCCNC(=N)N)C(=O)N[C@@H](CCCCN)C(=O)N[C@H](C(=O)N[C@H](C(N)=O)[C@@H](C)CC)[C@@H](C)CC)CSSC[C@H](NC(=O)[C@H](C)NC(=O)[C@H](CCCNC(=N)N)NC(=O)[C@H](CCCCN)NC(=O)[C@H](CO)NC(=O)[C@H](CC(=O)O)NC3=O)C(=O)N2 [compound 123] | 10.4 µM | > 5 µM | 0.17 µM | 3.1 µM | 19
3 | CC[C@H](C)[C@H](NC(=O)[C@H](Cc1ccc(O)cc1)NC(=O)[C@H](CCCCN)NC(=O)[C@H](CCCNC(=N)N)NC(=O)[C@@H]1CSSC[C@@H]2NC(=O)[C@H](C)NC(=O)[C@H](CCCNC(=N)N)NC(=O)[C@H](CCCCN)NC(=O)[C@H](CO)NC(=O)[C@H](CC(=O)O)NC(=O)[C@@H]3CSSC[C@H](NC(=O)[C@H](CCC(=O)O)NC(=O)[C@H](CC(C)C)NC(=O)CNC(=O)[C@H](CCC(=O)O)NC(=O)[C@H](CSSC[C@H](NC(=O)[C@@H](N)Cc4ccc(O)cc4)C(=O)N[C@@H](CCC(N)=O)C(=O)N[C@@H](CCCCN)C(=O)N[C@@H](Cc4c[nH]c5ccccc45)C(=O)N[C@@H](CCSC)C(=O)N[C@@H](Cc4c[nH]c5ccccc45)C(=O)N[C@@H]([C@@H](C)O)C(=O)N3)NC2=O)C(=O)N[C@@H](CCCCN)C(=O)N[C@@H](CC(C)C)C(=O)N[C@@H](CC(N)=O)C(=O)N1)C(N)=O [compound 229] | > 5 µM | > 5 µM | > 5 µM | > 5 µM | 
4 | CCC[C@@H]1NC(=O)[C@H](CCCCN)NC(=O)[C@H](CCC(N)=O)NC(=O)[C@@H](NC(=O)[C@@H](N)Cc2ccc(O)cc2)CSSC[C@@H]2NC(=O)[C@@H]3CSSC[C@@H](C(=O)N[C@@H](CCCNC(=N)N)C(=O)N[C@@H](CCCCN)C(=O)N[C@@H](Cc4ccc(O)cc4)C(=O)N[C@H](C(N)=O)[C@@H](C)CC)NC(=O)[C@H](Cc4c[nH]c5ccccc45)NC(=O)[C@H](CC(C)C)NC(=O)[C@H](CCCCN)NC(=O)[C@H](CSSC[C@H](NC(=O)[C@H]([C@@H](C)O)NC(=O)[C@H](Cc4c[nH]c5ccccc45)NC(=O)[C@H](CCSC)NC1=O)C(=O)N[C@@H](CC(=O)O)C(=O)N[C@@H](CO)C(=O)N[C@@H](CCCCN)C(=O)N[C@@H](CCCNC(=N)N)C(=O)N[C@@H](C)C(=O)N3)NC(=O)[C@H](CCC(=O)O)NC(=O)[C@H](CC(C)C)NC(=O)CNC(=O)[C@H](CCC(=O)O)NC2=O [compound 198] | > 5 µM | > 5 µM | 3.3 µM | > 5 µM | 
5 | CCC[C@@H]1NC(=O)[C@H](CCSC)NC(=O)[C@H](Cc2c[nH]c3ccccc23)NC(=O)[C@H](CCCCN)NC(=O)[C@H](CCC(N)=O)NC(=O)[C@@H](NC(=O)[C@@H](N)Cc2ccc(O)cc2)CSSC[C@@H]2NC(=O)[C@@H]3CSSC[C@@H](C(=O)N[C@@H](CCCNC(=N)N)C(=O)N[C@@H](CCCCN)C(=O)N[C@@H](Cc4ccc(O)cc4)C(=O)N[C@H](C(N)=O)[C@@H](C)CC)NC(=O)[C@H](Cc4c[nH]c5ccccc45)NC(=O)[C@H](CC(C)C)NC(=O)[C@H](CCCCN)NC(=O)[C@H](CSSC[C@H](NC(=O)[C@H]([C@@H](C)O)NC1=O)C(=O)N[C@@H](CC(=O)O)C(=O)N[C@@H](CO)C(=O)N[C@@H](CCCCN)C(=O)N[C@@H](CCCNC(=N)N)C(=O)N[C@@H](C)C(=O)N3)NC(=O)[C@H](CCC(=O)O)NC(=O)[C@H](CC(C)C)NC(=O)CNC(=O)[C@H](CCC(=O)O)NC2=O [compound 212] | > 7 µM | > 7 µM | 4.5 µM | > 7 µM | 
6 | CC[C@H](C)[C@H](NC(=O)[C@@H](NC(=O)[C@H](CCCCN)NC(=O)[C@H](CCCNC(=N)N)NC(=O)[C@@H]1CSSC[C@@H]2NC(=O)[C@H](C)NC(=O)[C@H](CCCNC(=N)N)NC(=O)[C@H](CCCCN)NC(=O)[C@H](CO)NC(=O)[C@H](CC(=O)O)NC(=O)[C@@H]3CSSC[C@H](NC(=O)[C@H](CCCNC(=N)N)NC(=O)[C@H](CC(C)C)NC(=O)CNC(=O)[C@H](CCC(=O)O)NC(=O)[C@H](CSSC[C@H](NC(=O)[C@@H](N)CCC(=O)O)C(=O)N[C@@H](CCC(N)=O)C(=O)N[C@@H](CCCCN)C(=O)N[C@@H](Cc4c[nH]c5ccccc45)C(=O)N[C@@H](CCSC)C(=O)N[C@@H](Cc4cccc5ccccc45)C(=O)N[C@@H]([C@@H](C)O)C(=O)N3)NC2=O)C(=O)N[C@@H](CCCCN)C(=O)N[C@@H](CC(C)C)C(=O)N[C@@H](Cc2c[nH]c3ccccc23)C(=O)N1)[C@@H](C)CC)C(N)=O [compound 281] | > 5 µM | 0.4 µM and 0.5 µM | 0.032 µM and 0.047 µM | 0.7 µM and 0.5 µM | 
7 | CC[C@H](C)[C@H](NC(=O)[C@H](Cc1ccc(O)cc1)NC(=O)[C@H](CCCCN)NC(=O)[C@H](CCCNC(=N)N)NC(=O)[C@@H]1CSSC[C@@H]2NC(=O)[C@H](C)NC(=O)[C@H](CCCNC(=N)N)NC(=O)[C@H](CCCCN)NC(=O)[C@H](CO)NC(=O)[C@H](CC(=O)O)NC(=O)[C@@H]3CSSC[C@H](NC(=O)[C@H](CCCNC(=N)N)NC(=O)[C@H](CC(C)C)NC(=O)CNC(=O)[C@H](CCC(=O)O)NC(=O)[C@H](CSSC[C@H](NC(=O)[C@@H](N)CCC(=O)O)C(=O)N[C@@H](CCC(N)=O)C(=O)N[C@@H](CCCCN)C(=O)N[C@@H](Cc4c[nH]c5ccccc45)C(=O)N[C@@H](CCSC)C(=O)N[C@@H](Cc4c[nH]c5ccccc45)C(=O)N[C@@H]([C@@H](C)O)C(=O)N3)NC2=O)C(=O)N[C@@H](CCCCN)C(=O)N[C@@H](CC(C)C)C(=O)N[C@@H](Cc2c[nH]c3ccccc23)C(=O)N1)C(N)=O [compound 278] | > 5 µM | 0.3 µM | 0.046 µM | 0.7 µM | 16
8 | CC[C@H](C)[C@H](NC(=O)[C@@H](NC(=O)[C@H](CCCCN)NC(=O)[C@H](CCCNC(=N)N)NC(=O)[C@@H]1CSSC[C@@H]2NC(=O)[C@H](C)NC(=O)[C@H](CCCNC(=N)N)NC(=O)[C@H](CCCCN)NC(=O)[C@H](CO)NC(=O)[C@H](CC(=O)O)NC(=O)[C@@H]3CSSC[C@H](NC(=O)[C@H](Cc4ccc(C(=O)O)cc4)NC(=O)[C@H](CC(C)C)NC(=O)CNC(=O)[C@H](CCC(=O)O)NC(=O)[C@H](CSSC[C@H](NC(=O)[C@@H](N)Cc4ccc(O)cc4)C(=O)N[C@@H](CCC(N)=O)C(=O)N[C@@H](CCCCN)C(=O)N[C@@H](Cc4c[nH]c5ccccc45)C(=O)N[C@@H](CCSC)C(=O)N[C@@H](Cc4c[nH]c5ccccc45)C(=O)N[C@@H]([C@@H](C)O)C(=O)N3)NC2=O)C(=O)N[C@@H](CCCCN)C(=O)N[C@@H](CC(C)C)C(=O)N[C@@H](Cc2c[nH]c3ccccc23)C(=O)N1)[C@@H](C)CC)C(N)=O [compound 114] | 14.2 µM | > 5 µM | 0.21 µM | > 5 µM | 24
9 | CSCC[C@@H]1NC(=O)[C@H](Cc2c[nH]c3ccccc23)NC(=O)[C@H](CCCCN)NC(=O)[C@H](CCC(N)=O)NC(=O)[C@@H](NC(=O)[C@@H](N)Cc2ccc(O)cc2)CSSC[C@@H]2NC(=O)[C@@H]3CSSC[C@@H](C(=O)N[C@@H](CCCNC(=N)N)C(=O)N[C@@H](CCCCN)C(=O)N[C@@H](Cc4ccc(O)cc4)C(=O)N[C@@H](CCCCN)C(N)=O)NC(=O)[C@H](Cc4c[nH]c5ccccc45)NC(=O)[C@H](CC(C)C)NC(=O)[C@H](CCCCN)NC(=O)[C@H](CSSC[C@H](NC(=O)[C@H]([C@@H](C)O)NC(=O)[C@H](Cc4c[nH]c5ccccc45)NC1=O)C(=O)N[C@@H](CC(=O)O)C(=O)N[C@@H](CO)C(=O)N[C@@H](CCCCN)C(=O)N[C@@H](CCCNC(=N)N)C(=O)N[C@@H](C)C(=O)N3)NC(=O)[C@H](CCC(=O)O)NC(=O)[C@H](CC(C)C)NC(=O)CNC(=O)[C@H](CCC(=O)O)NC2=O [compound 242] | > 5 µM | > 5 µM | 0.45 µM and 0.63 µM | > 5 µM | 
